Here are results for 23 molecules from patent US12116358B2, “Substituted indoles and methods of use thereof” (EPIZYME, INC., priority 2018, dated 2024).

Like-named read-outs stand apart in the source and are kept apart here. Some results are limits rather than exact numbers.

Test [1] concerns H3K36me3 in A549 cells. Nature of the test: In-Cell Western (ICW) assay of SETD2 inhibitors (A549 assay). Format: cell-based, human. As to conditions: A549 cells, read-out: SETD2 A549. The method in brief:
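A549 cells seeded at 4,000/well onto compound and incubated 3 days at 37° C. Methanol-fixed cells stained overnight at 4° C with anti-H3K36me3 (1:1000), then IRDye 800CW secondary with DRAQ5 DNA counterstain. Plates read by Licor imaging at 700 and 800 channels.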

Test [2] concerns the target T1, SETD2(1434-1711) (Homo sapiens, UniProt Q9BYW2).
T1 construct: SETD2 (1434-1711) Assay; catalogue N/A
T1 sequence (Q9BYW2 1434-1711): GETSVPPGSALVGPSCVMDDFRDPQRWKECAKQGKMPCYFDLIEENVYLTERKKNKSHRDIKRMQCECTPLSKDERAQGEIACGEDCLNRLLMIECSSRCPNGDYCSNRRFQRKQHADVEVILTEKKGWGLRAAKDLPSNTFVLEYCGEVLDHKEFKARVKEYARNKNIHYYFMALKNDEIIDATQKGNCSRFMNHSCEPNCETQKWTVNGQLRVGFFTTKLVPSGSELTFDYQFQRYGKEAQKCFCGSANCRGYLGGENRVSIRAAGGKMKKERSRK
Nature of the test: SETD2 (1434-1711) assay. Format: biochemical. As to conditions: read-out: SETD2 (1434-1711).

As to `Cc1ccc(F)c2cc(C(=O)Nc3cccc4c(N5CCC(N(C)C)CC5)[nH]nc34)[nH]c12` [compound 415], the IC50 was found to be 3.2 µM in test [1] (Homo sapiens) and 0.1 µM in test [2].
In the same order, the values of `CC(=O)N1C2CC1CN(c1cccc(NC(=O)c3cc4c(F)ccc(C)c4[nH]3)c1)C2` [compound 257] are 0.6 µM and 0.2 µM.
Consider `Cc1cccc2cc(C(=O)N[C@@H](CO)c3ccccc3)[nH]c12` [compound 616], for which the IC50 is more than 25 µM in test [1] (Homo sapiens) and 105 µM in test [2].
For `CNC1CCN(c2cccc(NC(=O)c3cc4c(F)ccc(C)c4[nH]3)c2)CC1` [compound 144], in that order: 0.3 µM and 0.02 µM.
As for `Cc1cc(C(=O)O)cnc1C(NC(=O)c1cc2c(F)ccc(C)c2[nH]1)C1CC1` (stereo not shown) [compound 544], the IC50 in test [1] is more than 25 µM; in test [2] it was 2.9 µM.
Turning to `Cc1ccc(F)c2cc(C(=O)Nc3cccc(N4CCN(C(=O)CC#N)CC4)c3)[nH]c12` [compound 170], the IC50 in test [1] (Homo sapiens) amounted to 0.3 µM; in test [2] it was 0.05 µM.
For `Cc1ccc(F)c2cc(C(=O)Nc3cccc(N4CCOCC4C4CC4)c3)[nH]c12` (stereo not shown) [compound 306], the values for the IC50 in test [1] (Homo sapiens) and in test [2] were 1.2 µM and 0.4 µM, respectively.
For `Cc1cccc2cc(C(=O)Nc3ccc4nc[nH]c(=O)c4c3)[nH]c12` [compound 538], in that order: more than 25 µM and 1 µM.
Turning to `Cc1ccc(F)c2cc(C(=O)N[C@@H]3CCCN(C4CCN(C(=O)CN(C)C)CC4)C3)[nH]c12` [compound 891], the IC50 in test [1] (Homo sapiens) was more than 2 µM; in test [2] it was 0.9 µM.
On to `Cc1ccc(F)c2cc(C(=O)Nc3cccc(N4CCN(C)C(C(F)(F)F)C4)c3)[nH]c12` (stereo not shown) [compound 229], for which the IC50 in test [1] came to 0.5 µM; in test [2], 0.1 µM.
For the molecule `Cc1cc(C(=O)N[C@H]2CC[C@@H]2N)cnc1C(NC(=O)c1cc2cccc(C)c2[nH]1)C1CC1` (stereo partly shown) [compound 573], the IC50 in test [1] (Homo sapiens) was more than 25 µM; in test [2], 16.9 µM.
Regarding `Cc1cccc2cc(C(=O)NC3CCN(C(=O)CCCN)CC3C)[nH]c12` (stereo not shown) [compound 543], the IC50 is more than 25 µM in test [1] and 2.6 µM in test [2].
For `Cc1cccnc1C(C)(C)NC(=O)c1cc2cccc(C)c2[nH]1` [compound 595], the IC50 is more than 25 µM in test [1] and more than 50 µM in test [2].
Regarding `Cc1ccc(F)c2cc(C(=O)Nc3cc(N4CCN(C)CC4)n4ccnc4c3)[nH]c12` [compound 355], the IC50 in test [1] (Homo sapiens) is more than 2 µM; in test [2], 0.5 µM.
For the molecule `Cc1cc(C(=O)NC2CCNC2)cnc1C(NC(=O)c1cc2cccc(C)c2[nH]1)C1CC1` (stereo not shown) [compound 510], the IC50 in test [1] was 15.5 µM; in test [2], 0.6 µM.
In the case of `Cc1cccc2cc(C(=O)Nc3cccc(N4CCC(NCCN)CC4)n3)[nH]c12` [compound 531], the IC50 is more than 25 µM in test [1] (Homo sapiens) and 0.2 µM in test [2].
In the case of `Cc1cccc2cc(C(=O)Nc3ccc4ccc(CN5CCOCC5)cc4c3)[nH]c12` [compound 487], the IC50 came out at 11 µM in test [1] and 1.6 µM in test [2].
With `Cc1ccc(F)c2cc(C(=O)Nc3cccc(-c4ccc(CNS(C)(=O)=O)cc4)c3)[nH]c12` [compound 136], the IC50 came to 0.3 µM in test [1] (Homo sapiens) and 0.4 µM in test [2].
`Cc1cccc2cc(C(=O)Nc3cn4ccnc4cn3)[nH]c12` [compound 623]: the IC50 is more than 25 µM in test [1] and more than 200 µM in test [2].
`CNC(=O)C(NC(=O)c1cc2c(F)ccc(C)c2[nH]1)c1ccccn1` (stereo not shown) [compound 585]: the IC50 in test [1] is more than 25 µM; in test [2], 34 µM.
`Cc1ccc(F)c2cc(C(=O)Nc3cccc(N4CCC(CCCN)CC4)c3)[nH]c12` [compound 150]: the IC50 in test [1] (Homo sapiens) was found to be 0.3 µM; in test [2], 0.02 µM.
As to `COCCN(C(C)=O)C1CCN(C2CCCC(NC(=O)c3cc4c(F)ccc(C)c4[nH]3)C2)C1` (stereo not shown) [compound 844], the IC50 was more than 2 µM in test [1] and 8.5 µM in test [2].
In the same order, the values of `Cc1ccc(F)c2cc(C(=O)NC3CCCC(N4CCN5C(=O)N(C)CC5C4)C3)[nH]c12` (stereo not shown) [compound 1051] are 0.03 µM and 0.01 µM.
